Results: patent US20090318544A1, “CRYSTALLINE FORM OF (2S)-(-)-N-(6-CHLORO-2,3-DIHYDRO-BENZO[1,4]DIOXIN-2-YLMETHYL)-SULFAMIDE” (priority 2008, published 2009)

How the values were obtained:
Type in all cases: physicochemical
[1] = TGA (Thermogravimetric Analysis) weight loss
Experimental: The weight loss for the sample was obtained using a TA Instruments TGA […] thermogravimetric calorimeter. The sample was analyzed as received and was program heated from ambient to 120° C. at 10° C./min under nitrogen purge.

[2] = DVS (Dynamic Vapor Sorption) cycling humidity, hygroscopicity; details: full cycle in step mode at 25° C., 0-90% RH in 10% RH increments
Experimental: (§1) A representative sample of crystalline form (IS-VI) was subjected to DVS (Dynamic Vapor Sorption) cycling humidity conditions to determine hydgroscopicity, as shown in FIG. 4. The sample was analyzed using a Surface Measurement System DVS-1 Dynamic Vapor Sorption System. The sample was analyzed full cycle in step mode at 25° C. from 0-90% RH in 10% RH increments. The equilibration conditions set were: dm/dt of 0.0007%/min, dm/dt window of 5 minutes, and minimum and maximum stages of 15 and 360 minutes. Data was collected in 1 minute intervals. Nitrogen was used as the carrier gas. The results from the DVS measurements indicate that crystalline form (IS-VI) is non-hygoscopic

[3] = Stability to temperature and humidity, concluded from DSC, TGA and DVS results; details: solid state; conclusion from the results above
Experimental: DSC (Differential Scanning Calorimetry) was measured for a representative sample of crystalline form (IS-VI), as shown in FIG. 2. DSC analysis of the sample was performed using a TA Instruments DSC Q1000 differential scanning calorimeter. The sample was analyzed as received in an open TA Instrument aluminum sample pan and was program heated from ambient to 120° C. at 10° C./min under nitrogen purge.
The weight loss for the sample was obtained using a TA Instruments TGA Q5000IR thermogravimetric calorimeter. The sample was analyzed as received and was program heated from ambient to 120° C. at 10° C./min under nitrogen purge.
as §1

hydrate state indicated by TGA ([1]; ambient to 120° C. at 10° C./min under nitrogen purge): non-hydrate
weight loss by TGA ([1]; heated from ambient to 120° C. at 10° C./min under nitrogen purge, ambient temperature up to and including melting): No weight loss was observed
hygroscopicity by DVS [2]: non-hygoscopic
Structure (SMILES): NS(=O)(=O)NC[C@H]1COc2cc(Cl)ccc2O1 [crystalline form (IS-VI), (2S)-(−)-N-(6-chloro-2,3-dihydro-benzo[1,4]dioxin-2-ylmethyl)-sulfamide]
stability to temperature and humidity [3]: exhibits stability to temperature and humidity
